Measured values reported in US20230158064A1 (priority 2020, published 2023).

Key:
[1] = test system: severe acute respiratory syndrome-related coronavirus (SARS-CoV); conditions: cited from earlier work
[2] = test system: cells infected with SARS-CoV; conditions: cited from earlier work
[3] = test system: COVID-19; test: Example 1: randomized open-label study of pulsed iNO versus standard of care in COVID-19, initial data; type: in vivo; conditions: three COVID-19 patients that completed the regimen
Procedure: This example discloses a randomized, open-label study to assess the efficacy and safety of pulsed iNO compared to standard of care (SOC) in subjects with COVID-19 who are hospitalized and require supplemental oxygen without assisted ventilation. Up to 500 subjects are randomized to receive either (a) iNO 125 mcg/kg IBW/hr for at least 8 hours and up to 24 hours daily for 3 days to 14 days or until resolution or discharge at the discretion of the Investigator, or (b) standard of care. No placebo arm is used. Subjects are followed through Day 28 to assess their clinical status. The primary objective in this study is to verify the efficacy of iNO in subjects with COVID-19. The secondary objective in this study is to evaluate the safety of iNO in subjects with COVID-19.
Outcomes are assessed using an outcome scale assessed 14 days after randomization.
Prior to receiving treatment with iNO, subjects were screened to confirm eligibility. […] Subjects in the iNO group are treated by means of an INOpulse device using a readily available cannula on site.
At day 0 of the study, subjects testing positive for COVID-19 are evaluated for vital signs, blood chemistry, and a chest x-ray or CT scan, and an overall physical exam is performed. Daily vital signs, oxygen measurements (pulse oximetry), methemoglobin levels, and adverse events are assessed through the entire course of treatment. […]

[4] = test system: COVID-19 (SARS-CoV-2); test: Example 2: INOpulse (pulsed iNO) expanded access series in hospitalized patients with hypoxemia due to COVID-19; type: in vivo; conditions: for ratio of oxygen saturation to fraction of inspired oxygen (SpO2/FiO2), median: FiO2 estimated from oxygen flow
[5] = test system: SARS; conditions: human, in vivo; cited from earlier work
[6] = one subject (CVD19-029), higher dose 250 mcg/kg IBW/hour (approximately 40 ppm)
[7] = patients that completed iNO treatment and were discharged

In the case of `[N]=O` [iNO, nitric oxide], the “replication of SARS-CoV” value [1] is listed as “inhibits the replication”, the “cellular survival of cells infected with SARS-CoV” value [2] is listed as “improves cellular survival” and the “need for mechanical ventilation” value [3] is listed as “avoid the need for mechanical ventilation”. For the same compound, the oxygenation ([3]; iNO 125 mcg/kg IBW/hr) was “improved oxygenation”, the “Oxygen Saturation (SpO2), Median” value ([4]; Discharge) was 95% and the “Oxygen Therapy (L/min), Median” value ([4]; Discharge, n=20) was 0.0 L/min. For the same compound, the “8 Point Ordinal Scale, Median” value ([4]; Discharge, scale of Table A) was 7, the “Oxygen Saturation (SpO2), Median” value ([4]; Post-iNO) was 95% and the “8 Point Ordinal Scale, Median” value ([4]; Post-iNO (first day off iNO), scale of Table A) was 4. The “Oxygen Therapy (L/min), Median” value ([4]; Post-iNO, n=22) was 2.0 L/min, the “ratio of oxygen saturation to fraction of inspired oxygen (SpO2/FiO2), median” value ([4]; baseline (start of iNO)) was 229 and the “Oxygen Saturation (SpO2), Median” value ([4]; iNO-End) was 95%. The “Oxygen Therapy (L/min), Median” value ([4]; iNO-End, n=22) was 3.3 L/min, the “8 Point Ordinal Scale, Median” value ([4]; iNO-End, scale of Table A) was 4 and the “Oxygen Therapy (L/min), Median” value ([4]; iNO-Start (baseline), n=24, iNO 125 mcg/kg IBW/hour) was 5.0 L/min. The “Oxygen Saturation (SpO2), Median” value ([4]; iNO-Start (baseline), pulse oximetry) was 94%, the “8 Point Ordinal Scale, Median” value ([4]; iNO-Start, scale of Table A (1 death to 8 not hospitalized, no limitations)) was 4 and the “patients discharged from the hospital at the time of report” value ([4]; of 24 COVID-19 positive patients) was 19 patients. The deaths ([4]; of 24 patients, elderly person with severe comorbidities, iNO for less than 24 hours) was “one”, the “ratio of oxygen saturation to fraction of inspired oxygen (SpO2/FiO2), median” value ([4]; on completion of iNO) was 286 and the clinical response [4, 6] was “responded well and was discharged home without supplemental oxygen”. For the same compound, the tolerability [4, 6] was “well tolerated”, the “Time to Discharge from hospitalization (median, range)” value [4, 7] was 10 (6-23) Days and the “Time to Discharge from start of iNO (median, range)” value [4, 7] was 6 (3-14) Days. For the same compound, the “ratio of oxygen saturation to fraction of inspired oxygen (SpO2/FiO2), median” value ([4]; period after iNO) was 346, the arterial oxygenation [5] was “improvements in arterial oxygenation” and the chest radiography [5] was “reduction in density of lung infiltrates”. For the same compound, the “supplemental oxygen and need for ventilatory support” value [5] was “reduction in supplemental oxygen and need for ventilatory support” and the “time to hospital discharge” value [5] was “shorter time to hospital discharge”.
